Results reported in the OligoGym collection.
After the bases stand the sugars from the 5' end (letter, count) and the backbone: PS all phosphorothioate, else s phosphorothioate and o phosphodiester by linkage. Methylation of C is not given here. e = 2'-O-(2-methoxyethyl) (MOE); l = locked nucleic acid (LNA); k = constrained ethyl (cEt); d = 2'-deoxy (DNA)

Experiments:
SNHG14 = settings: ASO
APOL1 = settings: ASO
[1] = Mouse Primary Neuronal Cell, 0.005 µM

| Sequence | target mRNA inhibition (SNHG14; Human Neuronal Cell, 0.2 µM) [%] | target mRNA inhibition (SNHG14; Human Neuronal Cell, 1 µM) [%] | target mRNA inhibition (SNHG14; Human Neuronal Cell, 7.5 µM) [%] | other results |
| --- | --- | --- | --- | --- |
| CACTAGTACTCTTATT (sugars l4 d10 l2, PS) | 43 | 38 |  |  |
| GTTACATATTCTTTCAC (sugars l3 d11 l3, PS) | 53 | 67 |  |  |
| TTTCCATTTATTTCCATTT (sugars lddldldddddddldddll, PS) |  |  | 53 |  |
| ATCTTTGACATTCCATC (sugars l2 d11 l4, PS) | 54 | 61 |  |  |
| TATCTTTCCATTTATTTCCA (sugars lddddlddddddddllddll, PS) |  |  | 50 |  |
| ATTCAGTTACCAACTA (sugars l3 d10 l3, PS) | 39 | 38 |  |  |
| TATCTTTGACATTCCAT (sugars l2 d11 l4, PS) | 48 | 52 |  |  |
| ACTCTGCAATACACCAA (sugars lddldddddddldldll, PS) |  |  | 66 |  |
| TCCATTTATTTCCATTTAT (sugars l2 d11 l2 d2 l2, PS) |  |  | 53 |  |
| AGATCATTCTCAACAATTA (sugars ldldlldddddddddddll, PS) |  |  | 57 |  |
| ATATTGATTCAATTCCC (sugars ldldldddddddldlll, PS) |  |  | 70 |  |
| ACCTACATCTCATACTT (sugars l2 d13 l2, PS) | 3 | -18 |  | target mRNA inhibition (SNHG14; Human Neuronal Cell, 5 µM): 7%; target mRNA inhibition (SNHG14; [1]): 88.6% |
| TTGATTCAATTCCCTTA (sugars lddllddddddllddll, PS) |  |  | 55 |  |
| TACACTTAATTATACTTCCA (sugars l1 d2 l1 d13 l3, PS) |  |  | 54 |  |
| CCATTCTATCTGCCAAA (sugars l2 d11 l4, PS) | 54 | 69 |  |  |
| TACCTACATCTCATACT (sugars l4 d11 l2, PS) | -53 | -18 |  | target mRNA inhibition (SNHG14; Human Neuronal Cell, 5 µM): 11%; target mRNA inhibition (SNHG14; [1]): 94.4% |
| TAAAGATCCCATCACT (sugars l4 d10 l2, PS) | 31 | 50 |  |  |
| GCTTTTAACCAGAGTGGCA (sugars l1 d16 l2, PS) |  |  | 46 |  |
| AGTTCTACTATACTTTCC (sugars l1 d2 l1 d12 l2, PS) |  |  | 43 |  |
| ACTCTGCAATACACCAA (sugars l2 d11 l4, PS) |  |  | 59 |  |
| ATCTCATGACCACCTA (sugars l3 d10 l3, PS) | 60 | 70 |  |  |
| CTGTATACACCATCCCA (sugars l1 d14 l2, PS) |  |  | 49 |  |

| Sequence | target mRNA inhibition (SNHG14; Human Neuronal Cell, 0.2 µM) [%] | target mRNA inhibition (SNHG14; Human Neuronal Cell, 1 µM) [%] | target mRNA inhibition (SNHG14; Human Neuronal Cell, 7.5 µM) [%] | other results |
| --- | --- | --- | --- | --- |
| AGCAACATTATTAACCAC (sugars llldlddddddddlddll, PS) |  |  | 46 |  |
| AAAATTATTTATACACCATC (sugars lllldlddddddddldllll, PS) |  |  | 59 |  |
| TTCTACTATACTTTCCTCT (sugars ldddddddddddldlddll, PS) |  |  | 60 |  |
| GTTTCCATCTACTATTAAT (sugars ldldddddddddddldlll, PS) |  |  | 44 |  |
| TTTTTATACCTTTCTTTAAC (sugars ldlddldddddddlldddll, PS) |  |  | 23 |  |
| TTACACATGTATATCC (sugars l3 d10 l3, PS) | 41 | 36 |  |  |
| TTAAATCCAGCATTCA (sugars l3 d10 l3, PS) | 54 | 66 |  |  |
| CAGCTTTTAACCAGAGTG (sugars l3 d13 l2, PS) |  |  | 76 |  |
| ATTCTCAATTGCACTT (sugars l4 d10 l2, PS) | 49 | 58 |  |  |
| CAAAGATCATTCTCAAC (sugars l2 d1 l1 d7 l6, PS) |  |  | 26 |  |
| ATGAAACTATTACTCC (sugars l2 d10 l4, PS) | 18 | 35 |  |  |
| TATGACTTATTCCATA (sugars l2 d10 l4, PS) | 18 | 14 |  |  |
| GCATTCAACCCTAATCA (sugars l3 d12 l2, PS) | 39 | 50 |  |  |
| TATTGATTCAATTCCCT (sugars ldlldddddddllldll, PS) |  |  | 19 |  |
| TATACCTTTCTTTAACCCTT (sugars ldddlddddddddddlddll, PS) |  |  | 54 |  |
| GTTTCCATCTACTATTAAT (sugars llldlddddddddldddll, PS) |  |  | 50 |  |
| TAAAATTATTTATACACCA (sugars llldllddddddlllldll, PS) |  |  | 7 |  |
| ATATTGATTCAATTCCC (sugars lddlldddddddlldll, PS) |  |  | 63 |  |
| ATCTTTCCATTTATTTCCA (sugars l1 d1 l1 d14 l2, PS) |  |  | 41 |  |
| CAACATTATTAACCACCTT (sugars l3 d11 l2 d1 l2, PS) |  |  | 51 |  |
| CTTTGACATTCCATCTC (sugars l2 d11 l4, PS) | 52 | 59 |  |  |
| TATTGATTCAATTCCCT (sugars l1 d1 l3 d10 l2, PS) |  |  | 71 |  |

| Sequence | target mRNA inhibition (SNHG14; Human Neuronal Cell, 0.2 µM) [%] | target mRNA inhibition (SNHG14; Human Neuronal Cell, 1 µM) [%] | target mRNA inhibition (SNHG14; Human Neuronal Cell, 7.5 µM) [%] | other results |
| --- | --- | --- | --- | --- |
| CAAAGATCATTCTCAACA (sugars l2 d1 l1 d9 l5, PS) |  |  | 69 |  |
| TTTATCAATATCTTCTCA (sugars lddddlddddddldllll, PS) |  |  | 61 |  |
| ATCATTCTCAACAATTA (sugars l4 d11 l2, PS) | 59 | 70 |  |  |
| AGTTCTACTATACTTTC (sugars l3 d8 l2 d2 l2, PS) |  |  | 12 |  |
| ATATACCCAAAGGCACCT (sugars l3 d12 l3, PS) | -13 | 15 |  | target mRNA inhibition (SNHG14; Human Neuronal Cell, 5 µM): 21% |
| ACTTCCAGATTTCTACA (sugars l2 d11 l4, PS) | 54 | 63 |  |  |
| TTGATTCAATTCCCTTA (sugars llddldddddddlddll, PS) |  |  | 67 |  |
| TTTTTATACCTTTCTTTAAC (sugars lddldddddddddldlldll, PS) |  |  | 61 |  |
| TTATAGCCATTCTATCT (sugars l4 d11 l2, PS) | 63 | 69 |  |  |
| CCTACATCTCATACTTGC (sugars l2 d12 l4, PS) |  |  |  | target mRNA inhibition (SNHG14; [1]): 97.3% |
| TTGTCAATCTTTATTCT (sugars l4 d11 l2, PS) | 33 | 45 |  |  |
| TGTTTCCATCTACTATTA (sugars lddldddddddddlldll, PS) |  |  | 63 |  |
| CTGTATACACCATCCCA (sugars l2 d2 l1 d10 l2, PS) |  |  | 60 |  |
| TTTATCAATATCTTCTCA (sugars lldldldddddddlldll, PS) |  |  | 66 |  |
| TCTCATGACCACCTAA (sugars l2 d10 l4, PS) | 39 | 54 |  |  |
| AAATCTCAACTACCATTTTT (sugars ldldddldddddddllldll, PS) |  |  | 14 |  |
| TCTTACTCTGACTTTCCA (sugars l2 d14 l2, PS) | 56 | 65 |  |  |
| GCTCCATATTTAAATC (sugars l4 d10 l2, PS) | 7 | 20 |  |  |
| CTAAATAGATTCCACT (sugars l2 d10 l4, PS) | 26 | 52 |  |  |
| ATCTCAACTACCATTT (sugars l4 d10 l2, PS) | 67 | 67 |  |  |
| TTTACACTTAATTATACTTC (sugars lddldldddddddlldllll, PS) |  |  | 36 |  |
| AGCAACATTATTAACCACC (sugars lddlldddddddlddldll, PS) |  |  | 46 |  |

| Sequence | target mRNA inhibition (SNHG14; Human Neuronal Cell, 0.2 µM) [%] | target mRNA inhibition (SNHG14; Human Neuronal Cell, 1 µM) [%] | target mRNA inhibition (SNHG14; Human Neuronal Cell, 7.5 µM) [%] | other results |
| --- | --- | --- | --- | --- |
| CTTCCCTTTGATAACA (sugars l4 d10 l2, PS) | 12 | 32 |  |  |
| GCACATTCTTTCTATACC (sugars l1 d3 l1 d11 l2, PS) |  |  | 54 |  |
| TTATAGCCATTCTATCT (sugars ldlddddddddlldlll, PS) |  |  | 43 |  |
| GCACATTCTTTCTATACC (sugars l1 d1 l2 d11 l3, PS) |  |  | 64 |  |
| TTATAGCCATTCTATCT (sugars lddldddddddldldll, PS) |  |  | 25 |  |
| TTATAGCCATTCTATCT (sugars l1 d1 l3 d10 l2, PS) |  |  | 67 |  |
| ATTTTTTTCTTACTATCTTC (sugars lldlddddddddddlddlll, PS) |  |  | 57 |  |
| TTTACACTTAATTATACTTC (sugars ldlllddddddddlllddll, PS) |  |  | 48 |  |
| ACTGTTTATACCCTTTC (sugars l2 d9 l1 d3 l2, PS) |  |  | 49 |  |
| CTCAGACATCTCAATA (sugars l4 d10 l2, PS) | 45 | 43 |  |  |
| TACATCTCATACTTGC (sugars l2 d12 l2, PS) | 0 | -10 |  | target mRNA inhibition (SNHG14; Human Neuronal Cell, 5 µM): 8%; target mRNA inhibition (SNHG14; [1]): 80.8% |
| CTGTATACACCATCCCA (sugars lddldddddddddldll, PS) |  |  | 49 |  |
| TTACCTACATCTCATACT (sugars l2 d14 l2, PS) | 5 | 14 |  | target mRNA inhibition (SNHG14; Human Neuronal Cell, 5 µM): 17%; target mRNA inhibition (SNHG14; [1]): 77.1% |
| AAAGATCATTCTCAACAA (sugars l1 d1 l1 d9 l6, PS) |  |  | 61 |  |
| TTTATCAATATCTTCTCA (sugars lllddlddddddldldll, PS) |  |  | 37 |  |
| TTTATACCTTTCTTTAACCC (sugars l1 d13 l1 d3 l2, PS) |  |  | 57 |  |
| GACTACATTCTCAATA (sugars l3 d10 l3, PS) | 30 | 50 |  |  |
| TTGTAAGTGCAACCAA (sugars kkddddkdkdkddddd, PS) |  |  |  | target mRNA inhibition (APOL1; A431, 2 µM): 74% |
| GGCATTCAGAATTTCC (sugars kkddddkekekddddd, PS) |  |  |  | target mRNA inhibition (APOL1; A431, 2 µM): 46% |
| TTATGGAATTGCAGAT (sugars k4 d9 k3, PS) |  |  |  | target mRNA inhibition (APOL1; A431, 0.0625 µM): 38%; target mRNA inhibition (APOL1; A431, 0.25 µM): 67%; target mRNA inhibition (APOL1; A431, 1 µM): 86% |
| AAGATTGGCTCTGGCT (sugars kkdddddkekeddddd, PS) |  |  |  | target mRNA inhibition (APOL1; A431, 2 µM): 65% |
